Test results taken from US11613546B2, “Substituted pyridotriazine compounds and uses thereof” (Gilead Sciences, Inc., priority 2021, dated 2023).
Like-named read-outs stand apart in the source and are kept apart here.

Tests used:
[1] = Cytotoxicity assay in MT-4 cells; format: cell-based; settings: human, uninfected MT-4 cells, 5 days, Cell Titer Glo; read-out: CC50
In short: (§1)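 Uninfected MT-4 cells were incubated with 1:3 serially diluted compound in RPMI/10% FBS for 5 days at 37° C. Viability was read by CellTiter-Glo luminescence, with 10 μM puromycin as the baseline cytotoxicity control. Values are the concentration giving a 50% decrease in luminescence, from sigmoidal dose-response fits.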

HIV-1 (IIIB) = assay: Antiviral assay in MT-4 cells; format: cell-based; settings: HIV-1 IIIB infected MT-4 cells, 5 days, Cell Titer Glo, read-out: MT4 EC50
In short: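 MT-4 cells infected with a 1:250 dilution of HIV-1 IIIB stock were incubated with serially diluted (1:3) compound for 5 days at 37 °C. Viability read by Cell Titer Glo luminescence; EC50 is the concentration giving 50% decrease in signal, from sigmoidal dose-response fits.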

[2] = Monkey PK after single-dose intravenous infusion; format: in vivo, monkeys; settings: cynomolgus, monkeys, single-dose intravenous infusion for 30 minutes, plasma, read-out: Cyno half-life (converted)
Description: Test compound PK was determined in monkeys (Labcorp, Madison, Wis.) following a single-dose intravenous infusion for 30 minutes. The dosing vehicle was 10% N-methylpyrrolidone; 50% polyethylene glycol 300 and 40% water (pH 8.3) for intravenous administration in monkeys. Serial blood samples were collected at predose, 0.25, 0.48 (before end of infusion), 0.58, 0.75, 1, 1.5, 2, 4, 8, 12, 24, 48, 72, 96, 120, 144, and 168 hours postdose (based on start of infusion) and plasma test compound concentrations were quantified using an LC-MS/MS method.
Nonclinical plasma samples were prepared by addition of 200 μl cold acetonitrile/internal standard solution to 96-well plates containing 50 μl aliquots of each plasma sample. After protein precipitation, each of the supernatants (50 μl) were transferred to clean 96-well plates and diluted with 450 μl of water. The sample injection volume was 2 μl. Samples were analyzed by a multiple reaction monitoring LC-MS/MS method. LC-MS system consisted of a Cohesive LX-2 multiplex with two identical DIONEX UltiMate 3000 RS pumps, Hypersil Gold C18 HPLC column (50×2.1 mm, […]; Thermo Fisher Scientific), and the ABSciex QTRAP5500 Mass Spectrometer LC-MS/MS system. Chromatography was performed using 0.1% formic acid and 1% isopropyl alcohol in aqueous solution (MP A), and 0.1% formic acid and 1% isopropyl alcohol in acetonitrile (MP B).
Plasma PK parameters for test compounds in monkeys were estimated via noncompartmental analysis using the software program Phoenix WinNonlin, version 6.3 (Pharsight Corporation, Mountain View, Calif.). The following plasma PK parameters were estimated in nonclinical species (as appropriate): observed peak plasma concentration (Cmax), time to reach Cmax (Tmax), last quantifiable plasma concentration (Clast), tin, time of Clast (Tlast), area under the plasma concentration-time curve (AUC) from time 0 to Clast (AUClast), AUC from time 0 to infinity (AUCinf), CL, mean residence time (MRT), and volume of distribution at steady state (Vss).

pLai RLuc reporter virus = assay: HIV MT-4 serum shift antiviral reporter assay; format: cell-based
In short: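 MT-4 cells pre-infected with pLai RLuc virus for 2 h at 37 °C, then incubated 72 h at 37 °C with compound in medium (RPMI, 10% FBS) with or without 50% human serum; Renilla luminescence read. EC50 from sigmoidal fit; serum shift = EC50(HS/CCM)/EC50(CCM).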

MT-4 cells = assay: Cytotoxicity assay in MT-4 cells; format: cell-based; settings: uninfected MT-4 cells, 5 days, Cell Titer Glo; read-out: CC50
In short: as §1

[3] = Human immunodeficiency virus 1, IIIB, MT4, 120 h
[4] = Human immunodeficiency virus 1, 72 h, read-out: RLUC 50% HS (nM), HS/CCM: 50% human serum, 72 h, Renilla Glo
[5] = Human immunodeficiency virus 1, 72 h, read-out: RLUC CCM (nM), cell culture media (RPMI, 10% FBS), 72 h, Renilla Glo
[6] = read-out: RLUC 50% HS, HS/CCM: 50% human serum, 72 h, Renilla Glo
[7] = read-out: RLUC CCM, cell culture media (RPMI, 10% FBS), 72 h, Renilla Glo
[8] = HS/CCM: 50% human serum, 72 h, Renilla Glo, read-out: RLUC 50% HS
[9] = cell culture media (RPMI, 10% FBS), 72 h, Renilla Glo, read-out: RLUC CCM

SMILES | CC50 at 5 days [1] | EC50 (HIV-1 (IIIB); [3]) | half-life [2] | EC50 (pLai RLuc reporter virus; [4]) | EC50 (pLai RLuc reporter virus; [5]) | EC50 (HIV-1 (IIIB)) | EC50 (pLai RLuc reporter virus; [6]) | CC50 (MT-4 cells) | EC50 (pLai RLuc reporter virus; [7]) | EC50 (pLai RLuc reporter virus; [8]) | EC50 (pLai RLuc reporter virus; [9])
C[C@H]1C=C[C@@H](CF)N2CN1C(=O)c1c(O)c(=O)c(C(=O)NCc3ccc(F)cc3F)cn12 [Example C44, (2S,5S)—N-(2,4-difluorobenzyl)-2-(fluoromethyl)-8-hydroxy-5-methyl-7,9-dioxo-2,5,7,9-tetrahydro-1,6-methanopyrido[1,2-b][1,2,5]triazonine-10-carboxamide] | 15000 nM | 1.2 nM | 29 h | – | – | – | – | – | – | – | –
C[C@@H]1C=C[C@H](C)N2CN1n1cc(C(=O)NCc3ccc(F)c(Cl)c3F)c(=O)c(O)c1C2=O [Example C63, (1S,2R,5S)—N-(3-chloro-2,4-difluorobenzyl)-8-hydroxy-2,5-dimethyl-7,9-dioxo-2,5,7,9-tetrahydro-1,6-methanopyrido[1,2-b][1,2,5]triazonine-10-carboxamide] | – | – | 110 h | – | – | – | – | – | – | – | –
C[C@H]1C=C[C@@H](CF)N2CN1C(=O)c1c(O)c(=O)c(C(=O)NCc3c(F)cc(F)cc3F)cn12 [Example C76, (1S,2S,5S)-2-(fluoromethyl)-8-hydroxy-5-methyl-7,9-dioxo-N-(2,4,6-trifluorobenzyl)-2,5,7,9-tetrahydro-1,6-methanopyrido[1,2-b][1,2,5]triazonine-10-carboxamide] | 16400 nM | 1 nM | 60 h | 265 nM | 0.42 nM | – | – | – | – | – | –
C[C@H]1C=C[C@H](C)N2CN1C(=O)c1c(O)c(=O)c(C(=O)NCc3c(F)cc(F)cc3F)cn12 [Example C25, (1S,2S,5S)-8-hydroxy-2,5-dimethyl-7,9-dioxo-N-(2,4,6-trifluorobenzyl)-2,5,7,9-tetrahydro-1,6-methanopyrido[1,2-b][1,2,5]triazonine-10-carboxamide] | 17400 nM | – | 55 h | – | 0.47 nM | 1 nM | 68 nM | – | – | – | –
CC[C@@H]1C=C[C@H](C)N2CN1n1cc(C(=O)NCc3c(F)cc(F)cc3F)c(=O)c(O)c1C2=O [Example C72, (1S,2R,5S)-2-ethyl-8-hydroxy-5-methyl-7,9-dioxo-N-(2,4,6-trifluorobenzyl)-2,5,7,9-tetrahydro-1,6-methanopyrido[1,2-b][1,2,5]triazonine-10-carboxamide] | 13800 nM | 0.5 nM | 51 h | 251 nM | 0.33 nM | – | – | – | – | – | –
C[C@@H]1C=C[C@H](C)N2CN1n1cc(C(=O)NCc3c(F)cc(F)cc3F)c(=O)c(O)c1C2=O [Example C24, (1S,2R,5S)-8-hydroxy-2,5-dimethyl-7,9-dioxo-N-(2,4,6-trifluorobenzyl)-2,5,7,9-tetrahydro-1,6-methanopyrido[1,2-b][1,2,5]triazonine-10-carboxamide] | 11400 nM | 0.98 nM | 57 h | 328 nM | 0.44 nM | – | – | – | – | – | –
C[C@@H]1CC[C@H](C)N2CN1n1cc(C(=O)NCc3ccc(F)cc3F)c(=O)c(O)c1C2=O [Example C37, (1S,2R,5S)—N-(2,4-difluorobenzyl)-8-hydroxy-2,5-dimethyl-7,9-dioxo-2,3,4,5,7,9-hexahydro-1,6-methanopyrido[1,2-b][1,2,5]triazonine-10-carboxamide] | 8570 nM | 1.3 nM | 22 h | 325 nM | 0.87 nM | – | – | – | – | – | –
C[C@H]1CC[C@H](C)N2CN1C(=O)c1c(O)c(=O)c(C(=O)NCc3ccc(F)cc3F)cn12 [Example C31, (1S,2S,5S)—N-(2,4-difluorobenzyl)-8-hydroxy-2,5-dimethyl-7,9-dioxo-2,3,4,5,7,9-hexahydro-1,6-methanopyrido[1,2-b][1,2,5]triazonine-10-carboxamide] | 7850 nM | 0.9 nM | 9 h | 328 nM | 0.41 nM | – | – | – | – | – | –
C[C@@H]1C=C[C@H](C)N2CN1n1cc(C(=O)NCc3ccc(F)cc3F)c(=O)c(O)c1C2=O [Example C29, (1S,2R,5S)—N-(2,4-difluorobenzyl)-8-hydroxy-2,5-dimethyl-7,9-dioxo-2,5,7,9-tetrahydro-1,6-methanopyrido[1,2-b][1,2,5]triazonine-10-carboxamide] | 18700 nM | 0.71 nM | 32 h | 169 nM | 0.31 nM | – | – | – | – | – | –
C[C@H]1CC[C@H](C)N2CN1C(=O)c1c(O)c(=O)c(C(=O)NCc3c(F)cc(F)cc3F)cn12 [Example C28, (1S,2S,5S)-8-hydroxy-2,5-dimethyl-7,9-dioxo-N-(2,4,6-trifluorobenzyl)-2,3,4,5,7,9-hexahydro-1,6-methanopyrido[1,2-b][1,2,5]triazonine-10-carboxamide] | – | – | – | – | – | 1.4 nM | 319 nM | 6870 nM | 0.33 nM | – | –
O=C(NCc1c(F)cc(F)cc1F)c1cn2c(c(O)c1=O)C(=O)N1Cc3ccc(F)cc3CN2C1 [Example C2, (6R)-9-fluoro-1-hydroxy-2,14-dioxo-N-(2,4,6-trifluorobenzyl)-2,7,12,14-tetrahydro-6,13-methanobenzo[g]pyrido[1,2-b][1,2,5]triazonine-3-carboxamide] | – | – | – | – | – | 18 nM | – | 12800 nM | – | 47.9 nM | 2.86 nM
C[C@@H]1C[C@@H](F)[C@@H](F)CN2CN1n1cc(C(=O)NCc3ccc(F)cc3F)c(=O)c(O)c1C2=O (single isomer, unassigned) [Example C38] | – | – | – | – | – | 1.5 nM | – | 13600 nM | – | 17 nM | 1.1 nM
C[C@@H]1CCC[C@H](C)N2CN1n1cc(C(=O)NCc3c(F)cc(F)cc3F)c(=O)c(O)c1C2=O [Example C21, (1R,2S,6S)-9-hydroxy-2,6-dimethyl-8,10-dioxo-N-(2,4,6-trifluorobenzyl)-3,4,5,6,8,10-hexahydro-2H-1,7-methanopyrido[1,2-b][1,2,5]triazecine-11-carboxamide] | – | – | – | – | – | 1.7 nM | 98.1 nM | 11700 nM | 0.23 nM | – | –
C[C@H]1CCCCN2CN1n1cc(C(=O)NCc3ccc(F)cc3F)c(=O)c(O)c1C2=O [Example C40, (1S,2S)—N-(2,4-difluorobenzyl)-9-hydroxy-2-methyl-8,10-dioxo-3,4,5,6,8,10-hexahydro-2H-1,7-methanopyrido[1,2-b][1,2,5]triazecine-11-carboxamide] | – | – | – | – | – | 2.1 nM | – | 16000 nM | – | 139 nM | 1.3 nM
C[C@@H]1C/C=C\[C@H](C)N2CN1n1cc(C(=O)NCc3c(F)cc(F)cc3F)c(=O)c(O)c1C2=O [Example C7, (1S,2R,6S,Z)-9-hydroxy-2,6-dimethyl-8,10-dioxo-N-(2,4,6-trifluorobenzyl)-3,6,8,10-tetrahydro-2H-1,7-methanopyrido[1,2-b][1,2,5]triazecine-11-carboxamide] | – | – | – | – | – | 2.1 nM | – | 9190 nM | – | 172 nM | 0.35 nM
O=C(NCc1c(F)cc(F)cc1F)c1cn2c(c(O)c1=O)C(=O)N1Cc3cc(F)ccc3CN2C1 [Example C1, (6R)-10-fluoro-1-hydroxy-2,14-dioxo-N-(2,4,6-trifluorobenzyl)-2,7,12,14-tetrahydro-6,13-methanobenzo[g]pyrido[1,2-b][1,2,5]triazonine-3-carboxamide] | – | – | – | – | – | 20 nM | – | 10100 nM | – | 30.2 nM | 3.18 nM
